Experimental data reported in paper PMC8886574, “Synthesis, physicochemical characterization and neuroprotective evaluation of novel 1-hydroxypyrazin-2(1H)-one iron chelators in an in vitro cell model of Parkinson's disease” (Dalton Transactions (Cambridge, England : 2003), 2022).
Like-named read-outs stand apart in the source and are kept apart here.

How the values were obtained:
[1] = cited from earlier work
[2] = DPPH radical scavenging assay; format: biochemical
[3] = Trolox equivalent antioxidant capacity (TEAC) assay, ABTS radical cation decolorization; format: biochemical; conditions: for time to complete reaction with ABTS radical cation: TEAC assay
Description: 2,2′-Azinobis-(3-ethylbenzothiazoline)-6-sulfonic acid radical cation (ABTS˙^+) is a blue/green chromophore that absorbs at 745 nm and was produced through the reaction between ABTS and potassium persulfate. Addition of antioxidants to the radical cation reduces it to the non-absorbing ABTS to an extent and on a time-scale depending on its antioxidant activity, the concentration of the antioxidant and the duration of the reaction. […] The TEAC value for a given ligand at a given time point was obtained by dividing the corresponding slope of the ligand by the slope of Trolox (Table 3 and Fig. S21 ^†).
TEAC values were calculated according to an ABTS radical cation decolorization assay. 2,2′-Azinobis-(3-ethylbenzothiazoline-6-sulphonic acid diammonium salt (ABTS, 7 mM) was dissolved in water (10 mL) and exposed to potassium persulphate (2.45 mM). After a 16-hour incubation period (dark, room temperature), the resulting solution was diluted with HPLC-grade methanol such that the absorbance of the solution at 745 nm was around 0.7. ABTS˙^+ solution (2 mL) was loaded into a cuvette and the absorbance was recorded at 745 nm. 50 μL of various concentrations of the given ligand solution were then added, the cuvette was vigorously shaken and the absorbance was measured after 1, 3 and 6 minutes. Data were plotted such that for each time point a linear system of percentage of inhibition of ABTS˙^+versus concentration of ligand was obtained. The slope of each plot was normalised with respect to that of Trolox to give the Trolox equivalence value for each time point.

[4] = system: SH-SY5Y neuroblastoma cells; design: method as in earlier work; conditions: studied previously ref 27; cited from earlier work
[5] = design: method as in PMID 32078022; conditions: cited from earlier work
[6] = cited from earlier work; remark: listed apart in the source
[7] = system: SH-SY5Y neuroblastoma cells; test: Neuroprotection against 6-OHDA insult, MTT cell viability assay; format: cell-based, Human; conditions: for neuroprotection against 6-OHDA (in words): 0–300 μM, pre-incubation 1 hour, 6-OHDA 24 hours; for % 6-OHDA Rescue (at 100 µM): 100 µM dose of the compound; for cell viability restored: human, 24 h
Description: We next evaluated the neuroprotective ability of these compounds when cells are exposed to 6-hydroxydopamine (6-OHDA), a neurotoxin that emulates various pathological aspects of PD in dopaminergic neurons, in both in vitro and in vivo disease models, including mitochondrial impairment and cell death.[26c,28,46] […] Cells were pre-treated with the compound of interest at different concentrations for 1 hour prior to treatment with 6-OHDA ([…]) for a further 24 hours.
Human SH-SY5Y neuroblastoma cells (ATCC® CRL-2266™) were plated at 20 000 cells per well in 96-well microplates, and left to adhere overnight to the well surface, in cell culture media composed of 50% advanced minimum essential medium (MEM), 50% Ham's F12 medium, 1% L-glutamine, that was supplemented with 2% fetal bovine serum (FBS). All media components were obtained from Thermo Fisher Scientific (Gibco™).
Each well's media was then replaced with 100 μL per well of serum free media, containing ascending concentrations of the novel compounds that ranged from 0–300 μM. Cells were pre-incubated with the compounds for 1 hour at 37 °C, 5% CO2, before exposure to 50 μM 6-OHDA (apart from the wells containing non-toxin treated control cells) for a further 24 hours. Just before application to cells, a 10 mM 6-OHDA hydrochloride (Sigma-Aldrich) stock concentration was prepared, by dissolving the powder in 1 mL distilled water containing 0.1% ascorbic acid (Sigma-Aldrich); the solution was protected against light and kept on ice until use.
After a further 24 hours incubation period at 37 °C in a 5% CO2 environment, cell viability was measured using the tetrazolium dye, 3-(4,5-dimethylthiazol-2-yl)-2,5-diphenyltetrazolium bromide (MTT). For this colorimetric assay, 11 μL of MTT (5 mg mL^−1) was added to the 100 μL media per well, and then incubated for 3 hours at 37 °C, 5%, CO2. For lysing the cells, an equal volume of solubilizing solution (dimethyl sulfoxide (DMSO)) was added to each well and mixed thoroughly. Absorption was measured at a wavelength of 570 nm by using a scanning multiwell spectrophotometer (Sunrise Tecan, Durham, NC, USA). Cell viability was calculated as a percentage compared to the untreated (not receiving toxin or drug compound) control wells. Data is expressed as the means ± the SEM of three independent experiments. Statistical analyses of the MTT-derived cell viability data were performed using Prism software (v3, GraphPad, San Diego, CA, USA) and using a one-way ANOVA, followed by a Dunnett's post-hoc test for multiple comparisons. Results were considered significant at P < 0.05.

[8] = Fe^3+ complexation: stability constants (log β) and sequestering ability (pL0.5) by spectrophotometric titration; conditions: solvent H2O; for log β FeL / log β FeL2 / log β FeL3: Fe^3+ complex; for pL0.5: towards Fe^3+ at pH 7.4, [Fe^3+] = 10^−9 M
[9] = Protonation constants (log K) of ligands by UV-visible spectrophotometric titration vs. pH; format: physicochemical; conditions: for log K LH2 / log K LH: Solvent H2O; for log K LH: I = 0.1 M (NaClO4), T = 25.0 °C; for pKa: value used as input for BBB score (Tables S1–S6)
Description: For ligand 10a, protonation constants of the ligand were studied in both media while complexation studies were carried out only in the mixed solvent for solubility reasons.

[10] = Distribution coefficients (log D7.4), Shake Flask method, n-octanol / HEPES buffer pH 7.4; format: physicochemical; conditions: free ligand, n-octanol / HEPES buffered aqueous phase pH 7.4
Description: The method is based on the principle that the solute's distribution is determined as a ratio of concentrations of the test compound in a solution mixture, consisting of two immiscible phases, namely n-octanol and an aqueous buffer (HEPES buffer, pH 7.4).

[11] = Solubility as observed during the studies (in words); format: physicochemical; conditions: for solubility in the aqueous phase (in words): HEPES-buffered aqueous phase pH 7.4 of log D7.4 determination, ligands and their Fe^3+ complexes
[12] = value used as input for BBB score (Tables S7–S9), previously studied ligands ref 28

For `CC(=O)N(O)CCCCCNC(=O)CCC(=O)N(O)CCCCCNC(=O)CCC(=O)N(O)CCCCCN` [DFO, desferrioxamine, reference compound], the “log β” value ([1]; iron affinity ref 57a,b) is listed as 30.5.
With `Cc1c(O)c(=O)ccn1C` [DFP 1, deferiprone, reference compound] the EC50 ([2]; methanol, steady-state) was 8 µg/mL, the EC50 ([2]; read-out: EC50) was 58 µM and the “time to complete reaction with ABTS radical cation” value [3] was at most 1 min. The “Antioxidant activity as TEAC” value ([3]; t = 1 min) was “∼0.7 mM”, the “Antioxidant activity as TEAC” value ([3]; t = 3 min) was “∼0.7 mM” and the “Antioxidant activity as TEAC” value ([3]; t = 6 min) was “∼0.7 mM”. The “% 6-OHDA Rescue (at 100 µM)” value [4] was 117%.
In the case of `O=c1cccc(CO)n1O` [Ligand 2], the “log D7.4 of Fe^3+ complex” value ([5]; Fe^3+ complex of the ligand ref 28) is listed as −0.18, the “log D7.4” value ([5]; free ligand ref 28) is listed as −1.71 and the pKa [6, 12] is listed as 6.02. The “% 6-OHDA Rescue (at 100 µM)” value [4] was 93%.
In the case of `O=C(O)c1cccn(O)c1=O` [Ligand 3], the pKa [6, 12] is given as 3.7 and the “% 6-OHDA Rescue (at 100 µM)” value [4] is given as 84%.
With `NCCc1cc(O)c(O)cc1O` [Ligand 6-OHDA, 6-hydroxydopamine, reference compound] the “decrease of cell viability” value ([7]; toxin only, 24 hours) was “approximately 50%”.
For `Cc1ncc(=O)n(O)c1C` [Ligand 6a, 1-Hydroxy-5,6-dimethylpyrazin-2(1H)-one], the “log β FeL” value [8] was 10.38(6), the “log β FeL2” value [8] was 18.1(4) and the “log β FeL3” value [8] was 23.85(1). The pL0.5 [8] was 4.36, the pKa ([6]; published previously ref 35) was 4.7 and the “log β3” value ([1]; 1 : 3 Fe^3+ complex, different experimental conditions ref 35) was 20.2. For the same compound, the “Antioxidant activity as TEAC” value ([3]; t = 1 min) was 0.08 mM, the “Antioxidant activity as TEAC” value ([3]; t = 3 min) was 0.16 mM and the “Antioxidant activity as TEAC” value ([3]; t = 6 min) was 0.22 mM. The “log K LH2” value [9] was 0.04(2), the “log K LH” value [9] was 4.58(4) and the pKa [9] was 4.58. For the same compound, the logD [10] was -1.73, the “neuroprotection against 6-OHDA (in words)” value (“neuroprotection” below) [7] was “fully rescued” and the “% 6-OHDA Rescue (at 100 µM)” value [7] was 100%. For the same compound, the cell viability restored [7] was at least 89%.
In the case of `Cc1nc(Cc2ccccc2)c(=O)n(O)c1C` [Ligand 6c, 1-Hydroxy-3-benzyl-5,6-dimethylpyrazin-2(1H)-one], the “solubility in the aqueous phase (in words)” value [11] is reported as “low solubilities”, the “solubility in water (in words)” value [11] is reported as “very low solubility in water” and the “Antioxidant activity as TEAC” value ([3]; t = 1 min) is reported as 0.21 mM. The “Antioxidant activity as TEAC” value ([3]; t = 3 min) was 0.31 mM, the “Antioxidant activity as TEAC” value ([3]; t = 6 min) was 0.40 mM and the pKa [9] was 5.53. For the same compound, the “neuroprotection” value [7] was “partially prevented”, the “% 6-OHDA Rescue (at 100 µM)” value [7] was 89% and the cell viability restored [7] was at least 89%.
With `Cc1nc(Cc2ccc(O)cc2)c(=O)n(O)c1C` [Ligand 6d, 1-Hydroxy-3-(4-hydroxybenzyl)-5,6-dimethylpyrazin-2(1H)-one] the “solubility in the aqueous phase (in words)” value [11] was “low solubilities”, the “solubility in water (in words)” value [11] was “very low solubility in water” and the “Antioxidant activity as TEAC” value ([3]; t = 1 min) was 0.41 mM. The “Antioxidant activity as TEAC” value ([3]; t = 3 min) was 0.55 mM, the “Antioxidant activity as TEAC” value ([3]; t = 6 min) was 0.64 mM and the pKa [9] was 5.96. For the same compound, the “% 6-OHDA Rescue (at 100 µM)” value [7] was 64%.
For `O=c1cncc(-c2ccccc2)n1O` [Ligand 10a, 1-Hydroxy-6-phenylpyrazin-2(1H)-one], the “solubility in water (in words)” value [11] was “very low solubility in water”, the “time to complete reaction with ABTS radical cation” value [3] was about 3 min and the “Antioxidant activity as TEAC” value ([3]; t = 1 min) was 0.66 mM. For the same compound, the “Antioxidant activity as TEAC” value ([3]; t = 3 min) was 0.69 mM, the “Antioxidant activity as TEAC” value ([3]; t = 6 min) was 0.70 mM and the “log K LH2” value [9] was “∼−0.6”. For the same compound, the “log K LH” value [9] was 3.18(1), the pKa [9] was 3.18 and the logD [10] was -1.2. The “neuroprotection” value [7] was “only marginal protection” and the “% 6-OHDA Rescue (at 100 µM)” value [7] was 63%.
In the case of `COc1ccc(-c2cncc(=O)n2O)cc1` [Ligand 10b, 1-Hydroxy-6-(4-methoxyphenyl)-pyrazin-2(1H)-one], the “solubility in water (in words)” value [11] is reported as “low water solubilities” and the melting point is reported as 176.8 to 179 °C.
In the case of `O=c1cncc(-c2ccc(F)cc2)n1O` [Ligand 10c, 1-Hydroxy-6-(4-fluorophenyl)-pyrazin-2(1H)-one], the “solubility in water (in words)” value [11] is reported as “low water solubilities” and the melting point is reported as 210.6 to 212.5 °C.
With `O=c1cncc(-c2ccc(O)cc2)n1O` [Ligand 10d, 1-Hydroxy-6-(4-hydroxyphenyl)-pyrazin-2(1H)-one] the pKa [9] was 4, the “neuroprotection” value [7] was “partially prevented” and the “% 6-OHDA Rescue (at 100 µM)” value [7] was 76%.
With `Cc1cncc(=O)n1O` [Ligand 11a, 1-Hydroxy-6-methylpyrazin-2(1H)-one] the “log β FeL” value [8] was 7.83(1), the “log β FeL2” value [8] was 14.28(2) and the “log β FeL3” value [8] was 20.19(4). For the same compound, the pL0.5 [8] was 3.13, the “Antioxidant activity as TEAC” value ([3]; t = 1 min) was 0.02 mM and the “Antioxidant activity as TEAC” value ([3]; t = 3 min) was 0.03 mM. The “Antioxidant activity as TEAC” value ([3]; t = 6 min) was 0.05 mM, the “log K LH2” value [9] was 0.2(2) and the “log K LH” value [9] was 3.98(5). The pKa [9] was 3.98, the logD [10] was -0.4 and the “% 6-OHDA Rescue (at 100 µM)” value [7] was 60%.
For `O=c1cnccn1O` [unsubstituted 1-hydroxypyrazin-2(1H)-one, 1-hydroxypyrazin-2(1H)-one], the pKa ([6]; published previously ref 35) is given as 4.4.
